# Patent publication US11834432B2, “Substituted amino six-membered nitric heterocyclic ring compound and preparation and use thereof” (SHANGHAI INSTITUTE OF MATERIA MEDICA, CHINESE ACADEMY OF …, priority 2016, dated 2023)
# “And” between values parts separate entries of the source, which are not always exact repeats. Equal values may be shown once.
# Assays:
# SNU16 cells = assay: Inhibition of proliferation of SNU16 cells (CCK-8); type: cell-based; conditions: Homo sapiens, SNU-16, 72 h
# Protocol: The inhibitory effect on proliferation of SNU16 cells of a compound was examined by CCK-8 Cell Counting Kit (Dojindo). The steps are as follows: SNUI 6 cells at Logarithmic growth phase were seeded in a 96-well culture plate at appropriate density, 90 ul for each well. After cultured overnight, different concentrations of drugs were added and treated for 72 h, while solvent control well was set (negative control). After 72 h, the influence of the compound on the proliferation of cells was observed by CCK-8 cell counting kit (Dojindo). 10 μL of CCK-8 reagent was added to each well. After incubated for 2-4 hours in a 37° C. incubator, the plate was read with SpectraMax 190 microplate reader at wavelength 450 nm.
# The IC50 values were obtained by four-parameter regression analysis using the software supplied with the microplate reader.
# ABL = ABL (Homo sapiens (Human), UniProt P00519); assay: In vitro tyrosine kinase inhibition screening (ELISA); type: biochemical; conditions: 1 h
# Protocol: (§1) 4. In Vitro Screening Test on Tyrosine Kinase Activity Inhibition Screening method: Enzyme-linked immunosorbent assay (ELISA) tyrosine kinase: Enzyme spectrum Time of action: 1 h
# EGFR = EGFR (Homo sapiens (Human), UniProt P00533); assay: as above; type: biochemical; conditions: 1 h
# Protocol: as §1
# EPH-A2 = EPH-A2 (Homo sapiens (Human), UniProt P29317); assay: as above; type: biochemical; conditions: 1 h
# Protocol: as §1
# ErbB2 = ErbB2 (Homo sapiens (Human), UniProt P04626); assay: as above; type: biochemical; conditions: 1 h
# Protocol: as §1
# ErbB4 = ErbB4 (Homo sapiens (Human), UniProt Q15303); assay: as above; type: biochemical; conditions: 1 h
# Protocol: as §1
# IGF1R = IGF1R (Homo sapiens (Human), UniProt P08069); assay: as above; type: biochemical; conditions: 1 h
# Protocol: as §1
# PDGFR-α = PDGFR-α (Homo sapiens (Human), UniProt P16234); assay: as above; type: biochemical; conditions: 1 h
# Protocol: as §1
# PDGFR-β = PDGFR-β (Homo sapiens (Human), UniProt P09619); assay: as above; type: biochemical; conditions: 1 h
# Protocol: as §1
# RET = RET (Homo sapiens (Human), UniProt P07949); assay: as above; type: biochemical; conditions: 1 h
# Protocol: as §1
# VEGFR-1 = VEGFR-1 (Homo sapiens (Human), UniProt P17948); assay: as above; type: biochemical; conditions: 1 h
# Protocol: as §1
# VEGFR-2 = VEGFR-2 (Homo sapiens (Human), UniProt P35968); assay: as above; type: biochemical; conditions: 1 h
# Protocol: as §1
# c-Met = c-Met (Homo sapiens (Human), UniProt P08581); assay: as above; type: biochemical; conditions: 1 h
# Protocol: as §1
# c-Src = c-Src (Homo sapiens (Human), UniProt P12931); assay: as above; type: biochemical; conditions: 1 h
# Protocol: as §1
# [1] = test system: human gastric cancer SNU-16 subcutaneously transplanted tumor; assay: Growth of subcutaneously transplanted tumor in human gastric cancer SNU-16 nude mice; type: in vivo
# Protocol: The human gastric cancer SNU-16 cell strain was preserved in our laboratory.
# S10 groups (30 mg/kg and 10 mg/kg) were orally administered once a day for 21 days; AZD4547 group (10 mg/kg) was administered orally once a day for 21 days; solvent control group was given the same amount of water for injection.
# [2] = test system: human lung cancer NCI-H1581 subcutaneously transplanted tumor; assay: Growth of subcutaneously transplanted tumor in human lung cancer NCI-H1581 nude mice
# Protocol: The cell strain was inoculated in the right axilla of the nude mice, and the amount of cells inoculated was 5×10^6/mouse to form transplanted tumor, which was directly inoculated and used.
# The tumor tissue in the prosperous growth period was cut into 1.5 mm^3, and inoculated subcutaneously in the right axilla of the nude mice under aseptic conditions. The diameter of the transplanted tumor in the nude mice was measured with a vernier caliper, and the animals were randomly grouped when the average volume of tumors was about 150-160 mm^3. […] The solvent control group was given an equal amount of water for injection. The diameter of the transplanted tumor was measured twice a week during the entire experiment, and the body weight of the mice was also weighed. The calculation formula of tumor volume (TV) is: TV=1/2×a×b^2, where a and b respectively represent the length and width of the tumor. The relative tumor volume (RTV) was calculated based on the measured results and the formula was: RTV=Vt/V0, where V0 is the tumor volume measured at grouping and dosing (d0), and Vt is the tumor volume at each measurement.
# Sequence of ErbB2 (P04626 23-1255, species assumed): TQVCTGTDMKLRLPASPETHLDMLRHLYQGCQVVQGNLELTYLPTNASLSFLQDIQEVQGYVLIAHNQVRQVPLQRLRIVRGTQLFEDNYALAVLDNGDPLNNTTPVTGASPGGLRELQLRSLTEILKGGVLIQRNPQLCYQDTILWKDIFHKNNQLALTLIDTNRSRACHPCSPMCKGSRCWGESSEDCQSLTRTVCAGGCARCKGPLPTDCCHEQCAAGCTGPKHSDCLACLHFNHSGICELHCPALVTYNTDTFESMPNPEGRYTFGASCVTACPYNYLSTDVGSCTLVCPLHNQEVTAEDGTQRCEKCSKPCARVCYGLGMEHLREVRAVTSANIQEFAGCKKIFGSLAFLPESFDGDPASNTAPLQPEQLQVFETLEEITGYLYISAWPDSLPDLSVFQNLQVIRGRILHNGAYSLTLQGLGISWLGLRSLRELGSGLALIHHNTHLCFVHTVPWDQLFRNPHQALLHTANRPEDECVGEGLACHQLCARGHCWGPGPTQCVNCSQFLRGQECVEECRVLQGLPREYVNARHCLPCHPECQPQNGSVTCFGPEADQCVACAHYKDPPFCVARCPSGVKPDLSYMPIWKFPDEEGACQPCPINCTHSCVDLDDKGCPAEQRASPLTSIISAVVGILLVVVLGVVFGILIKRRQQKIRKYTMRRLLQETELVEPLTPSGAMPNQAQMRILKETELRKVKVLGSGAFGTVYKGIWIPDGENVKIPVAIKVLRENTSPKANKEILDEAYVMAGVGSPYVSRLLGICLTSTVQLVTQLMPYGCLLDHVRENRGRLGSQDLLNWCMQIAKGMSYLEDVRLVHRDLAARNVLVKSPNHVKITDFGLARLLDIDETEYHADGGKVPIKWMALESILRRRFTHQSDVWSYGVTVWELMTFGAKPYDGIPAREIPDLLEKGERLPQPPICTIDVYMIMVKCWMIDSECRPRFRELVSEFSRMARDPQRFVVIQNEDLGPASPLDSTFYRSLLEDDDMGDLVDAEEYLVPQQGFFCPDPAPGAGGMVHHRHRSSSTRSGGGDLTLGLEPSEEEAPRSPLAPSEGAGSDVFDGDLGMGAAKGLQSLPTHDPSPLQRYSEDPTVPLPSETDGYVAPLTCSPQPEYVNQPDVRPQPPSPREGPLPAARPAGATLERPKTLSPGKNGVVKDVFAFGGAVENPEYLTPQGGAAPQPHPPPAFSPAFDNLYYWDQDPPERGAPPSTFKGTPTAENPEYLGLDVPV
# Sequence of VEGFR-1 (P17948 27-1338, species assumed): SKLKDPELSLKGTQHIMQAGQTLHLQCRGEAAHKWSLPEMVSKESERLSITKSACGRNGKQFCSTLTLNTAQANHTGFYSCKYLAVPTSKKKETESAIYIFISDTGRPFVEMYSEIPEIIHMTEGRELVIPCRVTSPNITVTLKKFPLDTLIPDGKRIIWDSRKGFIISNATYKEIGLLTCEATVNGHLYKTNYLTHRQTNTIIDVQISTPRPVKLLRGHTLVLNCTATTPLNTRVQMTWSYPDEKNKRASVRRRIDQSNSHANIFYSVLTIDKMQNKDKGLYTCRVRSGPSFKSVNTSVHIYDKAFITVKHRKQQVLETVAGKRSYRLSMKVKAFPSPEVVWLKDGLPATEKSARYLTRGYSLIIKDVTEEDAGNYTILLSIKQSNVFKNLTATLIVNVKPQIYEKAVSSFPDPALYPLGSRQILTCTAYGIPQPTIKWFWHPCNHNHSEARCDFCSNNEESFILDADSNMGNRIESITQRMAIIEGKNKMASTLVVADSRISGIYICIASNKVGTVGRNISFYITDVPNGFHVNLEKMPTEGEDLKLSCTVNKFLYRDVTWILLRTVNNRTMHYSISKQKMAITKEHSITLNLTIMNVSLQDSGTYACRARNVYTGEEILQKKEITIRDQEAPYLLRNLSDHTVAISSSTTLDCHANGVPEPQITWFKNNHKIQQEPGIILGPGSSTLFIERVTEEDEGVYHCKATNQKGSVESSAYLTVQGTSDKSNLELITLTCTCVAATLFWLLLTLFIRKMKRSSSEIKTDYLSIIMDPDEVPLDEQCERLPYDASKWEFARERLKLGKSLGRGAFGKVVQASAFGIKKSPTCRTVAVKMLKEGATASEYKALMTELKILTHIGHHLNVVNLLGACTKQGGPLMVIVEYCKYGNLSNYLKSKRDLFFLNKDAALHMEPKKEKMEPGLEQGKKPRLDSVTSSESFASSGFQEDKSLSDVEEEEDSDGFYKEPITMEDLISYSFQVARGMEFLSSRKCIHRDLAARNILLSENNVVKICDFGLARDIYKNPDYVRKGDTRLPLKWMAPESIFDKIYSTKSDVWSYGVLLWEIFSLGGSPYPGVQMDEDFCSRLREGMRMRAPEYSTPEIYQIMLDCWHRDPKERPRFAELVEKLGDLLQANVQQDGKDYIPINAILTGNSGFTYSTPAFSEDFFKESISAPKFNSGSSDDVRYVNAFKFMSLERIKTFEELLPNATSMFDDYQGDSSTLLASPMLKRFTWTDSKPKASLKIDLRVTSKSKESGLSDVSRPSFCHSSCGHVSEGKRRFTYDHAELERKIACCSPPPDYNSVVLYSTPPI
# Sequence of c-Met (P08581 25-1390): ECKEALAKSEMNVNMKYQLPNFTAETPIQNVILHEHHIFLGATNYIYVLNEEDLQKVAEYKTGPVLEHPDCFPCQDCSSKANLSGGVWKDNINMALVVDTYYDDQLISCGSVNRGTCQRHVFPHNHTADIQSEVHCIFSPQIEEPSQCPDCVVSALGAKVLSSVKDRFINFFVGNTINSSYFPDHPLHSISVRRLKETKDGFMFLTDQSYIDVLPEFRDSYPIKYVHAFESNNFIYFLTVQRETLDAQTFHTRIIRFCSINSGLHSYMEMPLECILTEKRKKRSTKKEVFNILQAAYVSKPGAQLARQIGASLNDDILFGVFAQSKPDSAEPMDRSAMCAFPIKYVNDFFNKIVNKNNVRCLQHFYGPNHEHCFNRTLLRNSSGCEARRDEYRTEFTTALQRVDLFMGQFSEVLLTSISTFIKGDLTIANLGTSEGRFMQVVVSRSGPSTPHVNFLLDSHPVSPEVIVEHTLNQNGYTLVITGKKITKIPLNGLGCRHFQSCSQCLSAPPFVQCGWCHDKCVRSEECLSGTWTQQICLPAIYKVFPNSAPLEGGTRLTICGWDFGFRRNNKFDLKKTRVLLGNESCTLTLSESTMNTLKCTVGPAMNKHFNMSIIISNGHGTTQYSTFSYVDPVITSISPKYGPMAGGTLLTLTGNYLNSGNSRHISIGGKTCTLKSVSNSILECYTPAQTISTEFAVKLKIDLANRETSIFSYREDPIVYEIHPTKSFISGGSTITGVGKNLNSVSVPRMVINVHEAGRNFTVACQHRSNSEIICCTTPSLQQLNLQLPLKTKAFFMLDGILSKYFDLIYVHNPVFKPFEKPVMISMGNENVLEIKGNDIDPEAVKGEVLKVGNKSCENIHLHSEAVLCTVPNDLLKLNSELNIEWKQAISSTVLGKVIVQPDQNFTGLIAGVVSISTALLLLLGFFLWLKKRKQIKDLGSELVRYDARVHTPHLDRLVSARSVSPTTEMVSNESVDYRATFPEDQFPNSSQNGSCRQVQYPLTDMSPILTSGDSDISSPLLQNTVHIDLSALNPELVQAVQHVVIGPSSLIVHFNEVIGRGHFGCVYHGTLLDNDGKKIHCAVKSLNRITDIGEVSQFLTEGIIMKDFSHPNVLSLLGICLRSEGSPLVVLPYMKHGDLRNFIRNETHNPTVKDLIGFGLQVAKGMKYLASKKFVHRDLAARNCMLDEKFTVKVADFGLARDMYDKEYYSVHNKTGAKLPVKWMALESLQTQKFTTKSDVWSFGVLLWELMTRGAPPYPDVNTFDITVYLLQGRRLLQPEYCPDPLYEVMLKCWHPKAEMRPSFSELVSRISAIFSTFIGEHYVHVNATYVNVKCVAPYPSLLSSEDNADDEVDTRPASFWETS
# Sequence of PDGFR-α (P16234 24-1089): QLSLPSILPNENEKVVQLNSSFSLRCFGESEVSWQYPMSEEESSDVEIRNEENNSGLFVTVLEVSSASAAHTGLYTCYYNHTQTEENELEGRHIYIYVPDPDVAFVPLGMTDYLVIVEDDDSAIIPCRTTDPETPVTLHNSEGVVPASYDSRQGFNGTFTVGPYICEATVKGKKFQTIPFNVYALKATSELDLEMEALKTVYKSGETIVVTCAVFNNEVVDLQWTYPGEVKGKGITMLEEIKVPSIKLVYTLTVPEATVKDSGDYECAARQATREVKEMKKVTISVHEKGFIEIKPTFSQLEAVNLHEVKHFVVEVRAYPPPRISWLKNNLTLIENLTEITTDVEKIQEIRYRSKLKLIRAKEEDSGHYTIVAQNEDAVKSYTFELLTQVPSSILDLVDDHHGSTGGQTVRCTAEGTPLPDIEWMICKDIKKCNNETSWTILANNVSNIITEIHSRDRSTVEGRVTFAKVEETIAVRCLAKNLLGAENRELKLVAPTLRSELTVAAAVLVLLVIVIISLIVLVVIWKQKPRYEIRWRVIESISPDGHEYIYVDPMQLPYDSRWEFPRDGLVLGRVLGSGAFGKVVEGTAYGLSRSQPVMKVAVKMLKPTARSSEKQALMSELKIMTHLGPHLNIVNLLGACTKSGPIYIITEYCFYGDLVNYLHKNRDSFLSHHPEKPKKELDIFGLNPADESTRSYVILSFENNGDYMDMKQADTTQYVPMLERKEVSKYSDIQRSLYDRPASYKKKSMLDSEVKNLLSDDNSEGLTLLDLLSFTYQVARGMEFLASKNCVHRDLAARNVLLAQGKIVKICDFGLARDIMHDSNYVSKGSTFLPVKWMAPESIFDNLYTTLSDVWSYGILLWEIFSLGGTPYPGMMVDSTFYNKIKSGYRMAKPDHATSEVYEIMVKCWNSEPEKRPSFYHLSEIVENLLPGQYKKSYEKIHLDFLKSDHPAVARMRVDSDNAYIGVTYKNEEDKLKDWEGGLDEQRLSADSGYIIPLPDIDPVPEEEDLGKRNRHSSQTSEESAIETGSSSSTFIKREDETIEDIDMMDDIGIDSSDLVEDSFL
smiles,measurement,setting,value
CNC(=O)c1cccc2cc(Oc3ccnc(NC(=O)c4ccc(N5C[C@@H](C)N[C@@H](C)C5)cc4)c3)ccc12 [Compound S10],IC50,SNU16 cells,6.1 nM
same,inhibition at 0.01 µM,"SNU16 cells; 10 nM, 72 h, read-out: Inhibition ratio (%)",59.6%
same,inhibition at 0.1 µM,"SNU16 cells; 100 nM, 72 h, read-out: Inhibition ratio (%)",62.1%
same,inhibition at 1 µM,"SNU16 cells; 1000 nM, 72 h, read-out: Inhibition ratio (%)",59.7%
same,Inhibition ratio (%) ABL,ABL; 10 nM,17.5%
same,Inhibition ratio (%) ABL,ABL; 1000 nM,28.8%
same,Inhibition ratio (%) EGFR,EGFR; 10 nM,9.6%
same,Inhibition ratio (%) EGFR,EGFR; 1000 nM,11.3%
same,Inhibition ratio (%) EPH-A2,EPH-A2; 10 nM,4.2%
same,Inhibition ratio (%) EPH-A2,EPH-A2; 1000 nM,7.7%
same,Inhibition ratio (%) ErbB2,ErbB2; 10 nM,17.4%
same,Inhibition ratio (%) ErbB2,ErbB2; 1000 nM,22.2%
same,Inhibition ratio (%) ErbB4,ErbB4; 10 nM,2.0%
same,Inhibition ratio (%) ErbB4,ErbB4; 1000 nM,7.0%
same,Inhibition ratio (%) IGF1R,IGF1R; 10 nM,23.5%
same,Inhibition ratio (%) IGF1R,IGF1R; 1000 nM,11.0%
same,Inhibition ratio (%) PDGFR-α,PDGFR-α; 10 nM,50.2%
same,Inhibition ratio (%) PDGFR-α,PDGFR-α; 1000 nM,87.1%
same,Inhibition ratio (%) PDGFR-β,PDGFR-β; 10 nM,56.4%
same,Inhibition ratio (%) PDGFR-β,PDGFR-β; 1000 nM,87.8%
same,Inhibition ratio (%) RET,RET; 10 nM,13.2%
same,Inhibition ratio (%) RET,RET; 1000 nM,90.5%
same,Inhibition ratio (%) VEGFR-1,VEGFR-1; 10 nM,75.6%
same,Inhibition ratio (%) VEGFR-1,VEGFR-1; 1000 nM,100.0%
same,Inhibition ratio (%) VEGFR-2,VEGFR-2; 10 nM,90.4%
same,Inhibition ratio (%) VEGFR-2,VEGFR-2; 1000 nM,98.7%
same,Inhibition ratio (%) c-Met,c-Met; 10 nM,11.2%
same,Inhibition ratio (%) c-Met,c-Met; 1000 nM,29.5%
same,Inhibition ratio (%) c-Src,c-Src; 10 nM,20.3%
same,Inhibition ratio (%) c-Src,c-Src; 1000 nM,43.6%
same,Body weight (g) d0,"[1]; 10 mg/kg po qd/21, d0",19.9 g
same,"TV (mm^3, mean ± SD) d0","[1]; 10 mg/kg po qd/21, d0",106 ± 33 mm^3
same,Body weight (g) d21,"[1]; 10 mg/kg po qd/21, d21",21.4 g
same,RTV (mean ± SD),"[1]; 10 mg/kg po qd/21, d21",3.48 ± 2.29
same,T/C (%),"[1]; 10 mg/kg po qd/21, d21",25.35% and 25%
same,"TV (mm^3, mean ± SD) d21","[1]; 10 mg/kg po qd/21, d21",322 ± 107 mm^3
same,"Body weight change, condition and mortality of mice during the experiment",[1]; 30 mg/kg po once a day for 21 days,"average weight of mice in the S10 group (30 mg/kg) was decreased, but the mice were still in good condition and no mice died"
same,Body weight (g) d0,"[1]; 30 mg/kg po qd/21, d0",21.2 g
same,"TV (mm^3, mean ± SD) d0","[1]; 30 mg/kg po qd/21, d0",106 ± 22 mm^3
same,Body weight (g) d21,"[1]; 30 mg/kg po qd/21, d21",17.0 g
same,RTV (mean ± SD),"[1]; 30 mg/kg po qd/21, d21",1.19 ± 0.38
same,T/C (%),"[1]; 30 mg/kg po qd/21, d21",8.67% and 9%
same,"TV (mm^3, mean ± SD) d21","[1]; 30 mg/kg po qd/21, d21",125 ± 47 mm^3
same,Body weight (g) d0,"[2]; 2.5 mg/kg po qd/14, d0",19.8 g
same,"TV (mm^3, mean SD) d0","[2]; 2.5 mg/kg po qd/14, d0",157 ± 43 mm^3
same,Body weight (g) d14,"[2]; 2.5 mg/kg po qd/14, d14",21.8 g
same,RTV (mean SD),"[2]; 2.5 mg/kg po qd/14, d14",8.36 ± 2.17
same,T/C (%),"[2]; 2.5 mg/kg po qd/14, d14",40.19% and 40%
same,"TV (mm^3, mean SD) d14","[2]; 2.5 mg/kg po qd/14, d14",1287 ± 412 mm^3
same,Body weight (g) d0,"[2]; 5 mg/kg po qd/14, d0",19.0 g
same,"TV (mm^3, mean SD) d0","[2]; 5 mg/kg po qd/14, d0",154 ± 53 mm^3
same,Body weight (g) d14,"[2]; 5 mg/kg po qd/14, d14",21.5 g
same,RTV (mean SD),"[2]; 5 mg/kg po qd/14, d14",3.57 ± 0.91
same,T/C (%),"[2]; 5 mg/kg po qd/14, d14",17.18% and 17%
same,"TV (mm^3, mean SD) d14","[2]; 5 mg/kg po qd/14, d14",524 ± 122 mm^3
same,Body weight (g) d0,"[2]; 10 mg/kg po qd/14, d0",19.9 g
same,"TV (mm^3, mean SD) d0","[2]; 10 mg/kg po qd/14, d0",155 ± 45 mm^3
same,Body weight (g) d14,"[2]; 10 mg/kg po qd/14, d14",23.0 g
same,RTV (mean SD),"[2]; 10 mg/kg po qd/14, d14",2.09 ± 0.77
same,T/C (%),"[2]; 10 mg/kg po qd/14, d14",10.03% and 10%
same,"TV (mm^3, mean SD) d14","[2]; 10 mg/kg po qd/14, d14",338 ± 223 mm^3
same,Condition and mortality of animals during the experiment,"[2]; 10, 5 and 2.5 mg/kg po once a day for two weeks",the animals in each group were in good condition and there was no mice died
